According to article PMC8659243, “Design, Synthesis and Tumour-Selective Toxicity of Novel 1-[3-{3,5-Bis(benzylidene)-4-oxo-1-piperidino}-3-oxopropyl]-4-piperidone Oximes and Related Quaternary Ammonium Salts” (Molecules, 2021):
Read-outs that look alike come from different tables or passages of the source.

What was measured:
[1] = test system: COLO 205, HCC2998, HCT-15, KM12 and SW-620 cells; settings: read-out: average IC50 against COLO 205, HCC2998, HCT-15, KM12 and SW-620 cells; cited from earlier work
Ca9-22 cells [2] = test: Cytotoxicity against Ca9-22 cells, MTT method, 48 h; assay type: cell-based, human; settings: for CC50: Homo sapiens, read-out: CC50 Ca9-22; for SI Ca9-22: average CC50 towards HGF, HPLF, HPC divided by CC50 against Ca9-22
Protocol: (§1) A literature procedure was followed when the compounds in series 3 and 4 were evaluated against three human oral squamous cell carcinoma cell lines Ca9-22 (RCB-1976), HSC-2 (RCB1945), HSC-4 (RCB1902) (purchased from RIKEN Cell Bank, Tukuba, Japan) and three human normal oral cells, gingival fibroblast (HGF), periodontal ligament fibroblast (HPLF) and pulp cells (HPC) (established according to the guideline of the intramural ethic committee, A0808) except the duration of incubation was increased from 24 h to 48 h. In brief, various concentrations of the compounds were added to the DMEM media, which was supplemented by 10% heat-inactivated fetal bovine serum. Incubation was undertaken at 37 °C. At the completion of the experiment, cell viability was determined by the MTT method.

HSC-2 cells = test: Cytotoxicity against HSC-2 cells, MTT method, 48 h; assay type: cell-based, human; settings: for CC50: Homo sapiens, HSC-2, concentration required to kill 50% of the cells, 48 h, MTT; for SI HSC-2: average CC50 towards HGF, HPLF, HPC divided by CC50 against HSC-2
Protocol: as §1

HSC-4 cells = test: Cytotoxicity against HSC-4 cells, MTT method, 48 h; assay type: cell-based, human; settings: for CC50: Homo sapiens, read-out: CC50 HSC-4; for SI HSC-4: average CC50 towards HGF, HPLF, HPC divided by CC50 against HSC-4
Protocol: as §1

[3] = test system: Ca9-22, HSC-2 and HSC-4 cells; test: Average over Ca9-22, HSC-2 and HSC-4 neoplastic cells; assay type: cell-based, human; settings: for CC50: Homo sapiens, read-out: Average CC50; for Average SI: average of SI for Ca9-22, HSC-2 and HSC-4
Protocol: In order to assess whether the compounds in series 3 and 4 are more toxic to neoplasms than non-malignant cells, selective index (SI) figures were calculated. In the in vivo situation, a tumour is surrounded by a number of non-malignant cells.
In order to identify the most promising lead compounds in terms of both cytotoxic potencies and favourable SI values, potency–selectivity expression (PSE) values were computed. […] Outstanding results may be noted for four compounds that have PSE values in excess of 100,000 namely 3d, 4c–e. […] However, the relative SI/PSE distribution patterns between series 3 and 4 (from a to h) are nearly superimposable with each other (Figure 3). […] It has been reported that 3,5-bis(3-iodo-5-methoxy-4-propoxybenzylidene)-N-acetylpiperidin-4-one inhibited tubulin and destabilization of microtubules, while 3,5-bis(3,4,5-trimethoxybenzylidene)-N-benzoylpiperidin-4-one destabilizes the microtubules. Thus, it remained to investigate whether compound 4d acts as an inhibitor of the microtubule.
as §1

[4] = Cytotoxicity against non-malignant HGF cells, MTT method, 48 h; assay type: cell-based; settings: human, gingival fibroblasts (HGF)
Protocol: as §1

[5] = Cytotoxicity against non-malignant HPLF cells, MTT method, 48 h; assay type: cell-based; settings: human, periodontal ligament fibroblasts (HPLF)
Protocol: as §1

[6] = Cytotoxicity against non-malignant HPC cells, MTT method, 48 h; assay type: cell-based; settings: human, pulp cells (HPC)
Protocol: as §1

[7] = Average over HGF, HPLF and HPC non-malignant cells; assay type: cell-based; settings: human, HPLF and HPC non-malignant cells (average of the three)
Protocol: as §1

[8] = test system: CEM T-lymphoblastic leukemia cells; test: Cytotoxicity against CEM cells, MTT method, 24 h; assay type: cell-based; settings: Homo sapiens, CCRF-CEM, concentration required to inhibit cell growth by 50%
Protocol: The method used for the evaluation of various compounds against human CEM cells has been reported previously. In brief, cells were grown in RPMI-1640 medium supplemented with 10% heat-inactivated fetal bovine serum. Different concentrations of compounds were added to the media, and after 24 h incubation, cytotoxicity was measured by the MTT method.

[9] = Stability by 1H NMR in 9:1 deuterated dimethylsulfoxide and deuterium oxide; assay type: physicochemical; settings: 37 °C
CEM cells = test: Effect on mitochondrial membrane potential, JC-1 dye, flow cytometry; assay type: cell-based, human; settings: CC50 and twice CC50 concentrations, 8 h
Protocol: The effect of 4b,c on the mitochondrial membrane potential of CEM cells was determined using a literature method. In brief, the cells were incubated with the compounds for 8 h. The neoplasms were then stained with the JC-1 dye and the results were obtained using flow cytometry.

Ca9-22 cells [10] = test: Cell cycle analysis and morphological changes in Ca9-22 cells; assay type: cell-based, human; settings: 24 h
Protocol: Treated and untreated Ca9-22 cells (approximately 10^6 cells) were harvested, fixed with 1% paraformaldehyde, treated with 0.2 mg/mL RNase A (preheated for 10 min at 100 °C to inactivate DNase), stained for 15 min with 0.01% propidium iodide in the presence of 0.01% NP-40 to prevent cell aggregation, filtered through Falcon® cell strainers ([…]) (Corning, NY, USA), subjected to cell sorting (SH800 Series; SONY Imaging Products and Solutions Inc., Kanagawa, Japan) and then analyzed with Cell Sorter Software version 2.1.2. (SONY Imaging Products and Solutions Inc., Kanagawa, Japan), as described previously.

[11] = test system: HL-60 (TB), K-562, RPMI-8226 and SR cells; parameters: method as in PMID 24657568; settings: read-out: average IC50 against HL-60 (TB), K-562, RPMI-8226 and SR cells; cited from earlier work
[12] = Ca9-22, concentration required to kill 50% of the cells, 48 h, MTT
[13] = HSC-4, concentration required to kill 50% of the cells, 48 h, MTT
[14] = average of Ca9-22, HSC-2 and HSC-4

## O=c1[nH]cc(F)c(=O)[nH]1 [5-fluorouracil]
[1]
  IC50: 8.46 µM

## C[N+]1(CCC(=O)N2C/C(=C\c3ccccc3)C(=O)/C(=C/c3ccccc3)C2)CCC(=NO)CC1 (stereo not drawn) [Compound 4a, (3~{E},5~{E})-3,5-bis-benzylidine-1-[3-(4-hydroximino-1-piperidyl)propanoyl]piperidin-4-one methiodide]
Ca9-22 cells [2]; [12]
  CC50: 0.56 ± 0.01 µM
Ca9-22 cells [2]
  SI Ca9-22: 30.4
HSC-2 cells
  CC50: 1.45 ± 0.16 µM
  SI HSC-2: 11.7
HSC-4 cells; [13]
  CC50: 0.58 ± 0.04 µM
HSC-4 cells
  SI HSC-4: 29.3
[3]; [14]
  CC50: 0.86 µM
[3]
  Average SI: 23.8
[4]
  CC50 at 48 h: 9.65 ± 1.23 µM
[5]
  CC50 at 48 h: 24.6 ± 1.1 µM
[6]
  CC50 at 48 h: 16.8 ± 0.68 µM
[7]
  CC50 at 48 h: 17 µM
[8]
  IC50: 7.62 ± 1.44 µM
[9]
  stability: 1H NMR spectra in dissolution and after 48 h incubation: identical
other
  melting point: 173 °C

## C[N+]1(CCC(=O)N2C/C(=C\c3ccc(F)cc3)C(=O)/C(=C/c3ccc(F)cc3)C2)CCC(=NO)CC1 (stereo not drawn) [Compound 4b, (3~{E},5~{E})-3,5-bis[(4-fluorophenyl)methylene]-1-[3-(4-hydroximino-1-piperidyl)propanoyl]piperidin-4-one methiodide]
Ca9-22 cells [2]; [12]
  CC50: 0.29 ± 0.23 µM
Ca9-22 cells [2]
  SI Ca9-22: 28.7
HSC-2 cells
  CC50: 0.42 ± 0.14 µM
  SI HSC-2: 19.8
HSC-4 cells; [13]
  CC50: 0.21 ± 0.01 µM
HSC-4 cells
  SI HSC-4: 39.6
[3]; [14]
  CC50: 0.31 µM
[3]
  Average SI: 29.4
[4]
  CC50 at 48 h: 4.5 ± 1.39 µM
[5]
  CC50 at 48 h: 9.13 ± 0.48 µM
[6]
  CC50 at 48 h: 11.3 ± 2.59 µM
[7]
  CC50 at 48 h: 8.31 µM
[8]
  IC50: 1.05 ± 0.38 µM
CEM cells
  effect on the mitochondrial membrane potential (MMP): interfered with the MMP

## C[N+]1(CCC(=O)N2C/C(=C\c3ccc(Cl)cc3)C(=O)/C(=C/c3ccc(Cl)cc3)C2)CCC(=NO)CC1 (stereo not drawn) [Compound 4c, (3~{E},5~{E})-3,5-bis[(4-chlorophenyl)methylene]-1-[3-(4-hydroximino-1-piperidyl)propanoyl]piperidin-4-one methiodide]
Ca9-22 cells [2]; [12]
  CC50: 0.02 ± 0.01 µM
Ca9-22 cells [2]
  SI Ca9-22: 202
HSC-2 cells
  CC50: 0.06 ± 0.01 µM
  SI HSC-2: 67.3
HSC-4 cells; [13]
  CC50: 0.09 ± 0.03 µM
HSC-4 cells
  SI HSC-4: 44.9
[3]; [14]
  CC50: 0.06 µM
[4]
  CC50 at 48 h: 1.65 ± 0.17 µM
[5]
  CC50 at 48 h: 4.17 ± 1.44 µM
[6]
  CC50 at 48 h: 6.3 ± 0.7 µM
[7]
  CC50 at 48 h: 4.04 µM
[8]
  IC50: 4.96 ± 0.28 µM
CEM cells
  effect on the mitochondrial membrane potential (MMP): interfered with the MMP

## C[N+]1(CCC(=O)N2C/C(=C\c3ccc(Cl)c(Cl)c3)C(=O)/C(=C/c3ccc(Cl)c(Cl)c3)C2)CCC(=NO)CC1 (stereo not drawn) [Compound 4d, (3~{E},5~{E})-3,5-bis[(3,4-dichlorophenyl)methylene]-1-[3-(4-hydroximino-1-piperidyl)propanoyl]piperidin-4-one methiodide]
Ca9-22 cells [2]; [12]
  CC50: 0.01 µM
Ca9-22 cells [2]
  SI Ca9-22: 236
HSC-2 cells
  CC50: 0.03 µM
  SI HSC-2: 78.7
HSC-4 cells; [13]
  CC50: 0.03 µM
HSC-4 cells
  SI HSC-4: 78.7
[3]; [14]
  CC50: 0.02 µM
[4]
  CC50 at 48 h: 1.15 ± 0.41 µM
[5]
  CC50 at 48 h: 2.12 ± 0.2 µM
[6]
  CC50 at 48 h: 3.81 ± 0.02 µM
[7]
  CC50 at 48 h: 2.36 µM
[8]
  IC50: 5.19 ± 0.66 µM
Ca9-22 cells [10]
  morphological change and cell cycle effect: induced cell spreading due to G2/M cell accumulation without the induction of a subG1 population

## N[C@@H](Cc1ccc(N(CCCl)CCCl)cc1)C(=O)O [Melphalan, reference compound]
Ca9-22 cells [2]; Ca9-22, 48 h
  CC50: 48.5 ± 1.33 µM
HSC-4 cells; HSC-4, 48 h
  CC50: 17.4 ± 0.88 µM
[3]
  CC50: 26.7 µM
[4]
  CC50 at 48 h: 157 ± 38.2 µM
[5]
  CC50 at 48 h: 195 ± 4.04 µM
[6]
  CC50 at 48 h: > 200 µM
[11]
  IC50: 56.7 µM
